Assay results as given in the NIST ThermoML archive (doi:10.1016/j.fluid.2011.11.011).
± gives the expanded uncertainty stated by the source.

Assay: an = ratio of the nth substance listed
Details: 275 K, Pendant drop shape

| Compound | surface tension liquid-gas (a1 = 500) [mN/m] | surface tension liquid-gas (a1 = 1000) [mN/m] | surface tension liquid-gas (a1 = 2000) [mN/m] | surface tension liquid-gas (a1 = 2500) [mN/m] | surface tension liquid-gas (a1 = 3000) [mN/m] | surface tension liquid-gas (a1 = 3500) [mN/m] | surface tension liquid-gas (a1 = 4000) [mN/m] | surface tension liquid-gas (a1 = 5000) [mN/m] | surface tension liquid-gas (a2 = 0) [mN/m] |
| --- | --- | --- | --- | --- | --- | --- | --- | --- | --- |
| CCCCCCCCCCCCOS(=O)(=O)[O-].[Li+] [lithium dodecyl sulfate] + O | 56.6 ± 1.8 | 53.1 ± 1.7 | 41.2 ± 1.3 | 38.9 ± 1.2 | 37.3 ± 1.2 | 37 ± 1.2 | 36.7 ± 1.2 | 36.7 ± 1.2 | – |
| O [water] + CCCCCCCCCCCCOS(=O)(=O)[O-].[Li+] | – | – | – | – | – | – | – | – | 72.7 ± 2.3 |
